Experimental findings from US20250090510A1, “eIF4G1-eIF1 INHIBITORS AND USE THEREOF” (YEDA RESEARCH AND DEVELOPMENT CO. LTD., priority 2022, published 2025) are described below.

Molecules are shown by their SMILES.

The test system of test [1] is P. falciparum translation. Briefly: Puromycin incorporation western blot in P. falciparum blood cultures. The following applies: i14G1-10 20 uM, i14G1-12 10 uM; 1 hour, puromycin 5 minutes. Format: cell-based, Plasmodium falciparum. How it is done: FIGS. 8A-B: (8A) Bar graph of percent parasitemia in blood samples treated with i14G1-10 (20 μM) and i14G1-12 (10 μM) for 1 hour. DMSO treatment was used as a negative control. *=pVal; <0.05, ***=pVal<0.001 (8B) Photograph of a western blot and corresponding gel total protein staining of P. falciparum blood cultures treated with the inhibitors with or without the addition of puromycin. DMSO treatment and untreated cultures were used as a negative control.
Next, the method of action that caused the growth/survival inhibition was tested. […] Puromycin labels newly synthesized proteins and cell lysates were analysed by western blot with anti-puromycin antibody (FIG. 8B).
On the technique in general: Immunoblotting shows a protein as a band on a membrane.

The target of test [2] is T1, eIF1 (Homo sapiens, UniProt P41567).
T1 construct: made in house; host or cells: E. coli BL21
Briefly: Intrinsic fluorescence of His-eIF1. Format: binding. Particulars: 0-256 μM, 5 minutes. From the text:
FIGS. 1A-G: Identification and initial characterization of eIF1-eIF4G1 inhibitors using a high-throughput drug screen (HTS). (1A) A flowchart describing the steps of the recombinant eIF1-eIF4G1 split-RL HTS. (1B) Selection of drugs that inhibit leaky scanning. HEK293T cells were transfected with a short 5′UTR bearing GFP reporter gene described on the top, treated with the indicated HTS hits, and then analyzed by western blot with GFP antibody. US and DS denote upstream and downstream AUG initiation sites, respectively. (1C) A graph showing the change in the ratio of the upstream and downstream AUG following treatment with the indicated drugs. (1D) The chemical structure of the eIF1-eIF4G1 inhibitors, i14G1-10 and i14G1-12. (1E) His-tagged eIF4G1 and His-tagged eIF1 were expressed in BL21 bacteria and purified using nickel NTA beads. Purified His-tagged eIF4G1 and His-tagged eIF1 were incubated with the indicated doses of either i14G1-10 (0-256 μM) or i14G1-12 (0-256 μM) for 5 minutes, followed by fluorescence measurement. […] IC50 was calculated using Graphpad prism 9. […]
Intrinsic fluorescence of His-eIF1 and His-eIF4G1. […] After 5 minutes, fluorescence (280/350) was measured on Cytation 5 multi-mode reader (Biotek). The fluorescence intensity values corresponding to respective concentration in both i14G1-10 and i14G1-12 treatments were plotted and IC50 was calculated using GraphPad Prism 9.0. […]

T1 sequence (P41567 whole entry): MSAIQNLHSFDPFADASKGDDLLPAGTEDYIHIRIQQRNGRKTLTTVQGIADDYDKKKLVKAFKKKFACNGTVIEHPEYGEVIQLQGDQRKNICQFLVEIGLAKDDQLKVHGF

In the case of `O=C(/C=C/Sc1ccc(C(F)(F)F)cn1)c1ccccc1` [i14G1-10], in test [1], the “protein synthesis (puromycin incorporation)” value is on record as “inhibited protein synthesis”. Besides, the “intrinsic fluorescence of eIF1” value in test [2] is listed as “almost unchanged”.
On to `Cn1ccnc1S/C(=C/C=C(C#N)C#N)c1ccc(Cl)cc1` [i14G1-12], for which, in test [1], the “protein synthesis (puromycin incorporation)” value was “inhibited protein synthesis”. In addition, the IC50 in test [2] (excitation 274 nm, emission 304 nm, read-out: IC-50, decrease of eIF1 intrinsic fluorescence) is 54 µM.
